The values below come from patent publication US20090264371A1, “ANTIPROLIFERATIVE PEPTIDES AND ANTIBODIES FOR THEIR DETECTION” (BIOINCEPT LLC, priority 2004, published 2009).

Data set [1] has as its system renal cancer cells (surgical specimen). As to the kind of experiment: Proliferation of cells from a surgical renal cancer specimen. Format: cell-based. As to conditions: about 24-30 hrs; chemotherapies at high concentrations of approximately 10-100 fold. The protocol: Cells were incubated with purified developmental peptides for approximately 24-30 hrs. While developmental peptides were effective in inhibiting proliferation of the renal cancer cells, two standardly used chemotherapies (a 5-FU regimen and a vinblastine regimen) remained ineffective, even at a high concentrations of approximately 10-100 fold.

Data set [2] relates to renal carcinoma cells (RCC). The experiment in a line: Viability of short-term cultured renal carcinoma cells (P1 and JC-1 staining). The class given is cell-based. The protocol: Mitochondrial membrane potential. A stock solution of JC-1 dye (100 μg/ml in DMSO) is prepared. Cells are preincubated with the peptide of SEQ ID NO: 2 for up to 24 hours. JC-1 reagent is diluted just prior to use. For each assay, 100 μl of stock solution is diluted to 1 ml using pre-warmed cell culture medium and the solution is vortexed. 40 μl of diluted JC-1 is added to each well and incubated at 37° C. in 5% CO2 incubator for 25-30 min. Medium is replaced with pre-warmed PBS. Samples are detected by fluorescent signals by using flow cytometry results compared to buffer only treated controls. JC-1 reagent accumulates in the intact mitochondria, giving off a bright red fluorescence. In apoptotic cells, JC-1 reagent cannot accumulate in the mitochondria due to the altered mitochondrial membrane potential.
FIG. 2 further confirms developmental peptides effectiveness as compared to chemotherapy. Short-term cultured renal carcinoma cells (RCC) were incubated with developmental peptides. […] While not wishing to be bound to theory, the anti-proliferative effect of developmental peptides is thought to be due to the developmental peptides induction of mitochondrial alterations in the malignant cells, as analyzed using JC-1 staining, a process which invariably leads to cell death. […] Thus, low concentrations of developmental peptides may enhance the efficacy of a chemotherapy regimen.

In a further data set the test system is HMEC cells. As to the kind of experiment: XTT method on HMEC cells. As to conditions: about 1.5 mg/ml. Format: cell-based, human. The protocol: (§1) XTT method. A commercial (Roche, N.J.) kit was used. At the end of the experiment the XTT labeling mixture was coupled to the electron reagent coupling and was added to the cultured cells in microplate for 4 hours. The microplate was placed in an ELISA microplate reader (Molecular devices, Menlo Park, Calif.).
(§2) A breast cancer cell line (MCF-7) and human mammary epithelial cells (HMEC) were incubated with the 9 AA developmental peptides of SEQ ID NO: 2. 3H thymidine labeling of DNA was used to analyze the anti-proliferative effect of developmental peptides using concentrations in the range of about 1.5-12 mg/ml developmental peptides. […] The antiproliferative response was repeated and analyzed using the XTT method. […] Finally, this same analysis was repeated using resistant prostate cancer cells, the PC3 cell line, which are androgen receptor negative cells. Developmental peptides was added to the cells using concentrations of about 6-25 mg/ml for 24 hours in the presence of 3H thymidine to measure the effect of developmental peptides on cell proliferation.

Another data set deals with rat embryo cultures. The experiment in a line: Rat embryo culture teratogenicity (roller bottle system). Particulars: 48 hours, about 500 μg/ml. The protocol:
Rat embryo cultures were exposed to synthetic developmental peptides of about 9 AA (about 500 μg/ml) for 48 hours (FIG. 6).

Data set [3] has as its system PC3 cell line (androgen receptor negative prostate cancer cells). Format: cell-based. Particulars: about 12-25 mg/ml, 24 hours.
Data set [4] has as its system human mammary epithelial cells (HMEC). As to the kind of experiment: 3H thymidine labeling of DNA in normal HMEC cells. Format: cell-based. Particulars: about 1.5-12 mg/ml, low concentrations. As for the experimental part:
3H Thymidine assay. In particular the tritiated thymidine assays were performed as follows. 10,000 cells were plated in 1 ml of RPMI 1640 medium containing 10% fetal bovine serum in 24-well plates. The cultures were incubated for 24 hours at 37 C, 5% carbon dioxide. The peptide was added to each corresponding well at different doses and allowed to incubate for 72 hours. The cells were then exposed to tritiated thymidine at a concentration of 1 uCi/ml (ICN, cat #2403905) and incubated at 37 C for 4 hours. The cells were washed twice with cold PBS to remove non-incorporated thymidine. The cells were treated twice with 10% trichloracetic acid (Fisher, lot #94276913), 1 ml per well. The cells were then disrupted by treatment with 10% sodium lauryl sulfate (Sigma, Cat#L-3771) at 500 ul/well. Cell from each well were transferred to a scintillation vial and counted in a Beckman Counter Model LS-133 scintillation counter.
A breast cancer cell line (MCF-7) and human mammary epithelial cells (HMEC) were incubated with the 9 AA developmental peptides of SEQ ID NO: 2. 3H thymidine labeling of DNA was used to analyze the anti-proliferative effect of developmental peptides using concentrations in the range of about 1.5-12 mg/ml developmental peptides. […] The antiproliferative response was repeated and analyzed using the XTT method. […]

Data set [5] concerns MCF-7 breast cancer cells. The experiment in a line: 3H thymidine incorporation assay on MCF-7 cells. Format: cell-based. As to conditions: about 1.5-12 mg/ml, low concentrations. As for the experimental part:
Isolation of the 9AA peptide from the adult mammalian liver. Fresh adult rabbit liver tissues were collected and homogenized on ice with H20. The samples were centrifuged at 15,000 g and the sample was filtered using Amicon filters 3000-10000 Da, <3000-500, and <500. Fractions collected were tested for activity using the MCF-7 cells. […] Separation by reverse phase HPLC yielded a 90% inhibition of cancer cells.
In a similar manner adult frozen porcine liver was collected and homogenized with H2O at 4° C. The suspension was centrifuged at 15,000 g and the pellet discarded. The suspension was filtered and the fraction <3000 Da was collected and run using reversed phase HPLC C18 column with a 0-95% acetonitrile gradient. […] Antiproliferative activity was tested by collecting the fractions, drying and suspending the sample in media and adding to MCF7 cells for 48 hours. Incorporation of 3H thymidine into cellular DNA of MCF-7 breast cancer cells was used to determine the anti-proliferative activity.
3H Thymidine assay. […] Cell from each well were transferred to a scintillation vial and counted in a Beckman Counter Model LS-133 scintillation counter.
A breast cancer cell line (MCF-7) and human mammary epithelial cells (HMEC) were incubated with the 9 AA developmental peptides of SEQ ID NO: 2. […] The antiproliferative response was repeated and analyzed using the XTT method. […]
On the technique in general: Dividing cells build labelled thymidine or BrdU into new DNA.

For the next data set, the system named is MCF-7 cells. As to the kind of experiment: XTT method on MCF-7 cells. Format: cell-based. As to conditions: about 1.5 mg/ml. As for the experimental part: as §1, §2

Regarding `O=c1[nH]cc(F)c(=O)[nH]1` [5-FU], the “inhibition of renal cancer cell proliferation” value in data set [1] was “ineffective”.

Take `COc1cc([C@@H]2c3cc4c(cc3[C@@H](O[C@@H]3O[C@@H]5CO[C@@H](C)O[C@H]5[C@H](O)[C@H]3O)[C@H]3COC(=O)[C@H]23)OCO4)cc(OC)c1O` [etoposide]: the “cell viability / cell death in RCC, P1 staining” value (from here on “cell viability / cell death”) in data set [2] is reported as “failed to induce cell death”.

For `CC(=O)O[C@H]1C(=O)[C@@]2(C)[C@H]([C@H](OC(=O)c3ccccc3)[C@]3(O)C[C@H](OC(=O)[C@H](O)[C@@H](NC(=O)c4ccccc4)c4ccccc4)C(C)=C1C3(C)C)[C@]1(OC(C)=O)CO[C@@H]1C[C@@H]2O` [paclitaxel], the “cell viability / cell death” value in data set [2] is on record as “failed to induce cell death”.

For the molecule `CN(Cc1cnc2nc(N)nc(N)c2n1)c1ccc(C(=O)N[C@@H](CCC(=O)O)C(=O)O)cc1` [methotrexate], in data set [2], the “cell viability / cell death” value is “failed to induce cell death”.

Consider `CC[C@]1(O)C[C@@H]2CN(CCc3c([nH]c4ccccc34)[C@@](C(=O)OC)(c3cc4c(cc3OC)N(C)[C@H]3[C@@](O)(C(=O)OC)[C@H](OC(C)=O)[C@]5(CC)C=CCN6CC[C@]43[C@@H]65)C2)C1` [vinblastine], for which the “inhibition of renal cancer cell proliferation” value in data set [1] is on record as “ineffective”.

Turning to “H-VLGKRIKGT-OH [9 AA developmental peptides, N-Val-Leu-Gly-Lys-Arg-Ile-Lys-Gly-Thr-OH]”, in the data set on HMEC cells, the “effect on HMEC cells, XTT” value is recorded as “minimal effect”. Also, in the data set with rat embryo cultures, the “development of viscera yolk sac and embryo” value is on record as “developed normally”; the teratogenicity result is reported as “not teratogenic”. In data set [3], the “inhibition of PC3 proliferation, 3H thymidine” value was “approximately 98%”. Moreover, the “effect on normal HMEC cells, 3H thymidine” value in data set [4] is “absence of any harmful or negative effect”. Also, the “antiproliferative response, 3H thymidine” value in data set [5] is reported as “antiproliferative response was maintained”. Besides, the “antiproliferative effect, XTT” value with MCF-7 cells is “maintained the antiproliferative effect”.
